The values that follow come from paper PMC5306082, “Physiologically based kinetic modeling of the bioactivation of myristicin” (Archives of Toxicology, 2016).

Data set [1] is described as follows: Glucuronidation of 1′-hydroxymyristicin, human liver S9. Format: in vitro ADME. The settings on record: both sexes, human, pH 7.4; 1′-hydroxymyristicin to its glucuronide; S9, UDPGA; read-out: Km. The procedure: The kinetic constants for the metabolic conversion of 1′-hydroxymyristicin to 1′-hydroxymyristicin glucuronide (HMG) by both male rat and human liver fractions were determined as described previously for the related 1′-hydroxyalkenylbenzenes (Punt et al. [2008]; van den Berg et al. [2012]; Punt et al. [2009]; Martati et al. [2011], [2012]; Al-Subeihi et al. [2011], [2012]). Briefly, incubations contained (final concentrations) 10 mM of UDPGA and 0.5 mg/ml of male Sprague–Dawley or pooled gender human S9 protein in 0.2 M Tris–HCl (pH 7.4) containing 10 mM of MgCl2. To overcome enzyme latency and to obtain maximal glucuronidation activity, incubations containing S9 were pretreated on ice with 0.025 mg/ml alamethicin added from a 200 times concentrated stock dissolved in methanol (Fisher et al. [2000]; Lin and Wong [2002]). After 15 min of alamethicin treatment, samples were pre-incubated at 37 °C for 1 min, and reactions were subsequently started by adding 1′-hydroxymyristicin at final concentrations of 10 to 1200 μM. 1′-Hydroxymyristicin was added from 100 times concentrated stock solutions in DMSO. The reaction mixtures were incubated for 30 and 180 min for rat and human, respectively, and terminated by adding 25 µl (0.25 times the incubation volume) of ice-cold ACN. Blank incubations were carried out in the absence of the cofactor UDPGA. Experiments were performed in triplicate. The longer incubation time in human samples was required due to the lower rate of glucuronidation. The formation of 1′-hydroxymyristicin glucuronide was linear with time and the S9 protein concentration under the experimental conditions described. All samples were centrifuged for 5 min at 16,000×g, and the supernatant was stored at −20 °C until ultra-performance liquid chromatography (UPLC) analysis.
1′-Hydroxymyristicin glucuronide was estimated based on the comparison of the peak area of the formed metabolite to the calibration curve of 1′-hydroxymyristicin at a wavelength of 210 nm. The flow rate was 0.6 ml/min. The gradient was made using a mixture of ACN and ultrapure water containing 0.1 % (v/v) TFA.

Data set [2] is described as follows: Sulfonation of 1′-hydroxymyristicin, male rat liver S9. Format: in vitro ADME. The settings on record: S9 protein yield 143 mg/g liver. The procedure:
The formation of 1′-sulfoxymyristicin was determined using incubations containing male rat liver Sprague–Dawley or pooled gender human liver S9 proteins, PAPS as a cofactor, and GSH, which acts as a scavenger of the reactive carbocation formed due to the unstable nature of the 1′-sulfoxy metabolite in an aqueous environment (van den Berg et al. [2012]; Martati et al. [2011]; Al-Subeihi et al. [2011]). Incubation mixtures containing (final concentrations) 10 mM of GSH, 0.2 mM of PAPS, and 3 mg/ml of S9 proteins in 0.1 M potassium phosphate (pH 8.2) were pre-incubated for 1 min at 37 °C. After the pre-incubation, 1′-hydroxymyristicin dissolved in DMSO was added in final concentrations ranging between 10 and 6000 μM while keeping the final content of DMSO at 1 % (v/v). The reaction was terminated after 360 min of incubation by adding 25 μl (0.25 times the incubation volume) of ice-cold ACN. The formation of the GSH conjugate of 1′-sulfoxymyristicin was linear with time and S9 protein concentrations under the experimental conditions used. Blank incubations were performed in the absence of PAPS. Incubations were performed in triplicate. All samples were centrifuged for 5 min at 16,000×g, and the supernatant was stored at −20 °C until ultra-performance liquid chromatography (UPLC) analysis.
Quantification of 1′-sulfoxymyristicin was done using UPLC analysis as described for the estimation of 1′-sulfoxysafrole (Martati et al. [2011]). […] The gradient for analysis of the metabolite consisted of a mixture of ACN and ultrapure water containing 0.1 % (v/v) TFA. The flow rate was 0.6 ml/min, starting at 0 % ACN and increasing the percentage of ACN to 20 % over 0.2 min, followed by an increase to 30 % ACN over 4.3 min, then increasing to 100 % over 0.3 min, and keeping it at 100 % for 0.2 min, and finally decreasing to 0 % over 0.2 min and keeping it at 0 % for 0.8 min. Separation and purification of the GSH adduct of 1′-sulfoxymyristicin was performed by collecting the peak of the metabolite from the UPLC column. […]

For orientation: Km means the concentration of substrate that gives half-maximal velocity.

With `C=CC(O)c1cc(OC)c2c(c1)OCO2` (centres unmarked) [1′-Hydroxymyristicin, 1′-hydroxymyristicin], the Km at 180 min in data set [1] is 3.14 mM. Besides, the “k Scaled” value in data set [2] was 0.15 ml/hr/g tissue.
